From paper PMC7286914 (2020) come the findings set out here.

What all share (assay): Cy3/quencher fluorescence titration, Langmuir fit
Test [1] concerns TAT60 (DNA, aptamer) CACCTGGGGGAGTATTGCGGAGGAAGGTTTTGAGGGAAAGAATCATTTCTTTCCCTATGTTTCCCTTTCTTTTTAACCAGGTG
The note with it: 6 mM MgCl2; Na+ (concentration not stated); 10 mM Tris, 10 mM Bis-Tris, 10 mM sodium acetate, pH 7, room temperature; apparent, intramolecular displacement strand competes.

Test [2] deals with A-C Mismatch (DNA, aptamer) CACCTGGGGGAGTATTGCGGAGGAAGGTTTTTTTTTTTTTACCCCCAAGTG
The note with it: 6 mM MgCl2; Na+ (concentration not stated); 10 mM Tris, 10 mM Bis-Tris, 10 mM sodium acetate, pH 8, room temperature; apparent, intramolecular displacement strand competes.

The subject of test [3] is A-G Mismatch (DNA, aptamer) CACCTGGGGGAGTATTGCGGAGGAAGGTTTTTTTTTTTTTTTCCCAAGGTG
The note with it: 6 mM MgCl2; Na+ (concentration not stated); 10 mM Tris, 10 mM Bis-Tris, 10 mM sodium acetate, pH 7.5, room temperature; apparent, intramolecular displacement strand competes.

The test system of test [4] is Combined TAT80/A-C Mismatch (DNA, aptamer) CACCTGGGGGAGTATTGCGGAGGAAGGTTTTGAAGAAAAAGATTGCTCTTTTTCTTATTGTTTCTTTTTCTATTTACCCCCAAGTG
The note with it: 6 mM MgCl2; Na+ (concentration not stated); 10 mM Tris, 10 mM Bis-Tris, 10 mM sodium acetate, pH 6.5, room temperature; apparent, intramolecular displacement strand competes.

Each structure is given as a SMILES string.

In the case of `Nc1ncnc2c1ncn2[C@@H]1O[C@H](COP(=O)(O)OP(=O)(O)OP(=O)(O)O)[C@@H](O)[C@H]1O`, the KDeff is on record as 3.9 (95% CI 3.2–4.8) mM in test [1], 0.30 (95% CI 0.25–0.36) mM in test [2], 0.32 (95% CI 0.27–0.37) mM in test [3] and 32 (95% CI 27–39) μM in test [4].
